One compound from EPA's ToxValDB 9.5 (doi:10.2903/j.efsa.2014.3880) can be followed below.

In general, NOAEL refers to the highest tested level that showed no adverse finding.

Molecules are shown by their SMILES. Values joined by “and” are separate entries in the source; they are usually repeats but may differ in a detail not shown here. Equal entries are not always repeated. Some results are limits rather than exact numbers.

The test system of one data set is Typhlodromus pyri. The experiment in a line: LR50; higher = less toxic. The following applies: not reported; reproduction.
For another data set, the system named is Apis mellifera. The note with it: acute, mortality.
In the next data set the test system is Folsomia candida. The following applies: chronic/long-term.
Another data set relates to Bibionidae. The note with it: chronic/long-term; duration: 23 days; reproduction.
The next data set deals with Anas platyrhynchos. The note with it: short-term; oral; feed; food consumption.
In another data set the test system is Oncorhynchus mykiss. The note with it: chronic/long-term; duration: 65 days; mortality.
The next data set has as its system Daphnia magna. The following applies: chronic/long-term; duration: 21 days; reproduction.
Another data set has as its system Rattus norvegicus. The following applies: for NOAEL: chronic.

The compound `c1ccc2[nH]c(-c3cscn3)nc2c1` [Thiabendazole] returned an LR50 in the data set with Typhlodromus pyri greater than 1800 g/ha. For the same compound, the LD50 in the data set with Apis mellifera (dermal) is greater than 34 µg/piece; in the data set with Apis mellifera (oral, unspecified), greater than 200 µg/piece; in the data set on Colinus virginianus (acute, oral), greater than 2250 mg/kg; in the data set with Rattus norvegicus (acute), 3100 mg/kg. Further, the NOAEL with Colinus virginianus (reproduction developmental) amounted to 34.9 mg/kg-day; in the data set with Rattus norvegicus it was 10 mg/kg-day; in the data set on Rattus norvegicus (duration: 2 years, histopathology: neoplastic), 10 mg/kg-day. Also, the NOEC in the data set on Folsomia candida is 25 mg/kg; in the data set on Bibionidae it was 2 mg/L and 3 mg/kg; in the data set on Oncorhynchus mykiss, 0.012 mg/L; with Daphnia magna, 0.041 mg/L; in the data set on Tagia sp. (chronic/long-term, duration: 8 weeks), 2.1 mg/kg. Further, the LC50 is greater than 1290 mg/kg in the data set on Anas platyrhynchos and greater than 224 mg/kg with Tagia sp. (acute, duration: 14 days, mortality). Further, the NOEL in the data set with Rattus norvegicus (reproduction developmental, reproduction) turned out to be 10 mg/kg-day.
